Drawing on US11046658B2, “Aminopyrazine derivatives as PI3K-γ inhibitors” (Incyte Corporation, priority 2018, dated 2021), this text covers IC50 for 24 compounds.

What is called IC50 is the point on the concentration scale where inhibition reaches its midpoint.

Counter-ions that a name gives are not always drawn. A value given as a limit tells only on which side of the number the result lay.

The test system of one assay is Phosphorylated Ribosomal Protein S6 (RPS6) in THP-1 cells. As to the kind of experiment: THP-1 RPS6 ELISA Assay. It counts as cell-based, Human. To be noted: Homo sapiens, THP-1, read-out: PI3Kγ_THP1_RPS6_ELISA IC50 (nM). The protocol: To measure the Phosphorylated Ribosomal Protein S6 (RPS6) in cell lysates, THP-1 cells (Human Acute Monocytic Leukemia) are purchased from ATCC (Manassas, Va.) and maintained in RPMI with 10% FBS (Gibco/Life Technologies, Carlsbad, Calif.). For the assay, THP-1 cells are serum starved overnight in RPMI, then plated in RPMI (2×10^5 cells/well in 90 μL) into 96-well flat-bottom tissue culture treated plates (Corning, Corning, N.Y.), in the presence or absence of a concentration range of test compounds. Covered plates are incubated for 2 hours at 37° C., 5% CO2 then treated with or without 10 nM MCP-1(MYBioSource, San Diego, Calif.) for 15 minutes at 37° C., 5% CO2. Plates are centrifuged at 1600 RPM and supernatants are removed. Cells are lysed in Lysis Buffer (Cell Signaling, Danvers, Mass.) with Protease Inhibitor (Calbiochem/EMD, Germany), PMSF (Sigma, St Louis Mo.), HALTS (Thermo Fisher, Rockford, Ill.) for 30 min on wet ice. Cell lysates are frozen at −80 OC before testing. The lysates are tested in the Human/Mouse/Rat Phospho-RPS6 ELISA (R&D Systems, Inc. Minn, Minn.). The plate is measured using a microplate reader (SpectraMax M5—Molecular Devices, LLC Sunnyvale, Calif.) set to 450 nm with a wavelength correction of 540. IC50 determination is performed by fitting the curve of inhibitor percent inhibition versus the log of the inhibitor concentration using the GraphPad Prism 5.0 software.
A general note: In an ELISA, binding on a coated surface is turned into a signal by an enzyme label.
As for `Cc1ccc(C(O)(C(N)=O)C(F)(F)F)cc1-c1cnc(N)c(N2CCN(CCC#N)CC2)n1` (stereo not drawn) [Example 125, 2-(3-(5-amino-6-(4-(2-cyanoethyl)piperazin-1-yl)pyrazin-2-yl)-4-methylphenyl)-3,3,3-trifluoro-2-hydroxypropanamide trifluoroacetate], the IC50 was below 500 nM.

Staying with this assay, now noted: Homo sapiens; Table A1; THP-1 cells, 10 nM MCP-1; read-out: PI3Kγ_THP1_RPS6_ELISA IC50.
Regarding `Cc1ccc(C(O)(CNC(=O)CF)C(F)(F)F)cc1-c1cnc(N)c(C(=O)NC(C)C)n1` (stereo not drawn) [Example 40, 3-Amino-N-isopropyl-6-(2-methyl-5-(1,1,1,-trifluoro-3-(2-fluoroacetamido)-2-hydroxypropan-2-yl)phenyl)pyrazine-2-carboxamide trifluoroacetate], the 50% inhibitory concentration (IC50) was below 500 nM.

As for `CC[C@@H](CC#N)NC(=O)c1nc(-c2cc(C(O)(C(N)=O)C(F)(F)F)ccc2C)cnc1N` (stereo partly drawn) [Example 20, 3-amino-6-(5-(3-amino-1,1,1-trifluoro-2-hydroxy-3-oxopropan-2-yl)-2-methylphenyl)-N-((S)-1-cyanobutan-2-yl)pyrazine-2-carboxamide trifluoroacetate], the half-inhibitory concentration (IC50) is below 100 nM.

Turning to `CC(=O)NCC(O)(c1ccc(C)c(-c2cnc(N)c(C(=O)NC(C)C)n2)c1)C(F)(F)F` (stereo not drawn) [Example 39, 6-(5-(3-Acetamido-1,1,1-trifluoro-2-hydroxypropan-2-yl)-2-methylphenyl)-3-amino-N-isopropylpyrazine-2-carboxamide trifluoroacetate], the IC50 is below 500 nM.

`Cc1ccc(C(O)(C(N)=O)C(F)F)cc1-c1cnc(N)c(C(=O)NCCC2CCOC2)n1` (stereo not drawn) [Example 37, 3-amino-6-(5-(1-amino-3,3-difluoro-2-hydroxy-1-oxopropan-2-yl)-2-methylphenyl)-N-(2-(tetrahydrofuran-3-yl)ethyl)pyrazine-2-carboxamide]: the IC50 was below 100 nM.

As to `Cc1ccc(C(O)(C(N)=O)C(F)(F)F)cc1-c1cnc(N)c(C(=O)NC23CCC(C#N)(CC2)CC3)n1` (stereo not drawn) [Example 25, 3-amino-6-(5-(3-amino-1,1,1-trifluoro-2-hydroxy-3-oxopropan-2-yl)-2-methylphenyl)-N-(4-cyanobicyclo[2.2.2]octan-1-yl)pyrazine-2-carboxamide trifluoroacetate], the IC50 is below 100 nM.

Take `Cc1ccc(C(O)(C(N)=O)C(F)(F)F)cc1-c1cnc(N)c(C(=O)NCC2(C#N)CC2)n1` (stereo not drawn) [Example 4, 3-amino-6-(5-(3-amino-1,1,1-trifluoro-2-hydroxy-3-oxopropan-2-yl)-2-methylphenyl)-N-((1-cyanocyclopropyl)methyl)pyrazine-2-carboxamide trifluoroacetate]: the IC50 was below 100 nM.

In the case of `Cc1ccc(C(O)(C(N)=O)C(F)(F)F)cc1-c1cnc(N)c(C(=O)NC23CCC(C#N)(C2)C3)n1` (stereo not drawn) [Example 24, 3-amino-6-(5-(3-amino-1,1,1-trifluoro-2-hydroxy-3-oxopropan-2-yl)-2-methylphenyl)-N-(4-cyanobicyclo[2.1.1]hexan-1-yl)pyrazine-2-carboxamide trifluoroacetate], the IC50 was below 100 nM.

Take `Cc1ccc(C(O)(C(N)=O)C(F)F)cc1-c1cnc(N)c(C(=O)NCC2(C#N)CC2)n1` (stereo not drawn) [Example 33, 3-amino-6-(5-(1-amino-3,3-difluoro-2-hydroxy-1-oxopropan-2-yl)-2-methylphenyl)-N-((1-cyanocyclopropyl)methyl)pyrazine-2-carboxamide]: the IC50 was below 100 nM.

In the case of `Cc1ccc(C(O)(C(N)=O)C(F)(F)F)cc1-c1cnc(N)c(C(=O)NC2CCOCC2)n1` (stereo not drawn) [Example 2, 3-amino-6-(5-(3-amino-1,1,1-trifluoro-2-hydroxy-3-oxopropan-2-yl)-2-methylphenyl)-N-(tetrahydro-2H-pyran-4-yl)pyrazine-2-carboxamide trifluoroacetate], the half-inhibitory concentration (IC50) is below 100 nM.

As to `Cc1ccc(C(O)(C(N)=O)C(F)(F)F)cc1-c1cnc(N)c(C(=O)N[C@@H](C)CC#N)n1` (stereo partly drawn) [Example 8, 3-amino-6-(5-(3-amino-1,1,1-trifluoro-2-hydroxy-3-oxopropan-2-yl)-2-methylphenyl)-N-((S)-1-cyanopropan-2-yl)pyrazine-2-carboxamide trifluoroacetate], the IC50 is below 100 nM.

Still in this assay, the particulars now being: Homo sapiens; Table A2; THP-1 cells, 10 nM MCP-1; read-out: PI3Kγ_THP1_RPS6_ELISA IC50.
With `Cc1ccc(C(O)(C(N)=O)C(F)(F)F)cc1-c1cnc(N)c(C#CC(C)(C)O)n1` (stereo not drawn) [Example 50, 2-(3-(5-amino-6-(3-hydroxy-3-methylbut-1-ynyl)pyrazin-2-yl)-4-methylphenyl)-3,3,3-trifluoro-2-hydroxypropanamide], the half-maximal inhibitory concentration (IC50) was below 100 nM.

Consider `Cc1ccc(C(O)(C(N)=O)C(F)(F)F)cc1-c1cnc(N)c(C#Cc2cncnc2)n1` (stereo not drawn) [Example 56, 2-(3-(5-amino-6-(pyrimidin-5-ylethynyl)pyrazin-2-yl)-4-methylphenyl)-3,3,3-trifluoro-2-hydroxypropanamide], for which the half-inhibitory concentration (IC50) was below 100 nM.

Regarding `COCC#Cc1nc(-c2cc(C(O)(C(N)=O)C(F)(F)F)ccc2C)cnc1N` (stereo not drawn) [Example 47, 2-(3-(5-amino-6-(3-methoxyprop-1-ynyl)pyrazin-2-yl)-4-methylphenyl)-3,3,3-trifluoro-2-hydroxypropanamide trifluoroacetate], the IC50 is below 100 nM.

The same assay, now with this note: Homo sapiens; Table A3; THP-1 cells, 10 nM MCP-1; read-out: PI3Kγ_THP1_RPS6_ELISA IC50.
For the compound `Cc1ccc(C(O)(C(N)=O)C(F)(F)F)cc1-c1cnc(N)c(-c2cnc(C3CC3)s2)n1` (stereo not drawn) [Example 84, 2-(3-(5-amino-6-(2-cyclopropylthiazol-5-yl)pyrazin-2-yl)-4-methylphenyl)-3,3,3-trifluoro-2-hydroxypropanamide trifluoroacetate], the 50% inhibitory concentration (IC50) was below 500 nM.

Take `Cc1ccc(C(O)(C(N)=O)C(F)(F)F)cc1-c1cnc(N)c(-c2ccnn2C)n1` (stereo not drawn) [Example 69, 2-(3-(5-Amino-6-(1-methyl-1H-pyrazol-5-yl)pyrazin-2-yl)-4-methylphenyl)-3,3,3-trifluoro-2-hydroxypropanamide trifluoroacetate]: the half-maximal inhibitory concentration (IC50) is below 100 nM.

With `CC(=O)NCC(O)(c1ccc(C)c(-c2cnc(N)c(-c3cn[nH]c3)n2)c1)C(F)(F)F` (stereo not drawn) [Example 105, N-(2-(3-(5-amino-6-(1H-pyrazol-4-yl)pyrazin-2-yl)-4-methylphenyl)-3,3,3-trifluoro-2-hydroxypropyl)acetamide trifluoroacetate], the concentration for half-maximal inhibition (IC50) was below 100 nM.

`Cc1ncc(-c2nc(-c3cc(C(O)(C(N)=O)C(F)F)ccc3C)cnc2N)o1` (stereo not drawn) [Example 100, 2-(3-(5-amino-6-(2-methyloxazol-5-yl)pyrazin-2-yl)-4-methylphenyl)-3,3-difluoro-2-hydroxypropanamide]: the IC50 is below 100 nM.

As to `Cc1ccc(C(O)(C(N)=O)C(F)F)cc1-c1cnc(N)c(-c2cnn(C)n2)n1` (stereo not drawn) [Example 101, 2-(3-(5-amino-6-(2-methyl-2H-1,2,3-triazol-4-yl)pyrazin-2-yl)-4-methylphenyl)-3,3-difluoro-2-hydroxypropanamide], the half-inhibitory concentration (IC50) was below 100 nM.

In the case of `Cc1ccc(C(O)(C(N)=O)C(F)(F)F)cc1-c1cnc(N)c(-c2ccc(B(O)O)cc2)n1` (stereo not drawn) [Example 97, (4-(3-Amino-6-(5-(3-amino-1,1,1-trifluoro-2-hydroxy-3-oxopropan-2-yl)-2-methylphenyl)pyrazin-2-yl)phenyl)boronic acid], the IC50 is below 500 nM.

For `Cc1ccc(C(O)(C(N)=O)C(F)(F)F)cc1-c1cnc(N)c(-c2ccc(C(F)(F)F)nc2)n1` (stereo not drawn) [Example 83, 2-(3-(5-amino-6-(6-(trifluoromethyl)pyridin-3-yl)pyrazin-2-yl)-4-methylphenyl)-3,3,3-trifluoro-2-hydroxypropanamide bistrifluoroacetate], the IC50 was below 500 nM.

Staying with this assay, now noted: Homo sapiens; Table A4; THP-1 cells, 10 nM MCP-1; cells given with + symbol; read-out: PI3Kγ_THP1_RPS6_ELISA IC50.
As for `CC(=O)N1CCN(c2nc(-c3cc(C(O)(C(N)=O)C(F)(F)F)ccc3C)cnc2N)CC1` (stereo not drawn) [Example 114, 2-(3-(6-(4-acetylpiperazin-1-yl)-5-aminopyrazin-2-yl)-4-methylphenyl)-3,3,3-trifluoro-2-hydroxypropanamide trifluoroacetate], the IC50 is below 100 nM.

Still in this assay, the particulars now being: Homo sapiens; Table A4; THP-1 cells, 10 nM MCP-1; read-out: PI3Kγ_THP1_RPS6_ELISA IC50.
Consider `Cc1ccc(C(O)(C(N)=O)C(F)(F)F)cc1-c1cnc(N)c(N2CCN(c3ccc(C#N)cc3)CC2)n1` (stereo not drawn) [Example 123, 2-(3-(5-amino-6-(4-(4-cyanophenyl)piperazin-1-yl)pyrazin-2-yl)-4-methylphenyl)-3,3,3-trifluoro-2-hydroxypropanamide trifluoroacetate], for which the IC50 was below 500 nM.

Still in this assay, the particulars now being: Table A1; THP-1 cells, 10 nM MCP-1; read-out: PI3Kγ_THP1_RPS6_ELISA IC50.
As for `Cc1ccc(C(O)(C(N)=O)C(F)(F)F)cc1-c1cnc(N)c(C(=O)NC2CC3CCC2O3)n1` (single isomer, unassigned) [Example 30, 3-amino-6-(5-(3-amino-1,1,1-trifluoro-2-hydroxy-3-oxopropan-2-yl)-2-methylphenyl)-N-(7-oxabicyclo[2.2.1]heptan-2-yl)pyrazine-2-carboxamide], the half-maximal inhibitory concentration (IC50) was below 100 nM.
